According to article PMC3585395, “Material Basis of Chinese Herbal Formulas Explored by Combining Pharmacokinetics with Network Pharmacology” (PLoS ONE, 2013):
Read-outs that look alike come from different tables or passages of the source.

Test: in vivo
Format: in vivo, Sprague–Dawley rats
Conditions: for Detection in rat plasma after D7 administration: LC-MS/MS, sampling up to 24 h; for AUC / Cmax / MRT / Tmax / half-life / AUC(0-t) / CL/F / Vd/F: male, Sprague-Dawley, rat, in vivo; for Vd/F: read-out: Vz/F
Procedure: Male Sprague–Dawley rats (∼250 g) purchased from Sino-British Sippr/BK Lab Animal, Ltd. (Shanghai, China) were housed in air-conditioned animal quarters with alternating 12 h light/dark cycles at a room temperature of 22°C±2°C and a relative humidity of 50%±10%. Commercial rat chow and water were given ad libitum. The animal studies were approved by the Review Committee of Animal Care and Use at Longhua Hospital. The rats were fasted overnight (∼12 h) and had free access to water throughout the experimental period. Five rats were given a single oral dose of D7 at 4 mL/kg, which was designed based on the clinical dosage for human. Blood samples (∼150 µL) were collected via a jugular vein catheter from non-restrained, non-sedated animals into heparinized tubes before and at 0.083, 0.25, 0.5, 1, 2, 3, 4, 6, 8, 10, and 24 h after administration. After centrifugation at 4000×g for 10 min at 4°C, duplicates of 25 µL of the plasma samples were obtained and were immediately stored at −80°C until analysis. After the experiments, the rats were sacrificed with ether anesthesia.
For protein precipitation, 75 µL of MeOH were added to 25 µL of plasma samples. After vortexing for 2 min and centrifugation for 5 min at 13000×g at 4°C, 80 µL aliquots of the supernatant liquid were transferred into autosampler vials for LC-MS/MS analysis.
The LC-MS/MS system consisted of an Agilent HPLC 1200 series system and a CTC autosampler coupled with an API 4000 triple-quadrupole mass spectrometer equipped with a TurboIonSpray ion source. The LC-MS/MS system was controlled using the Analyst 1.4.2 software, which also acquired and processed the data.
LC separation was performed on a 5 µm Agel Luna C18 (50 mm×2.1 mm, i.d.) at room temperature with a 2 µm filter used before the analytical column. The LC mobile phase was H2O containing 0.1% formic acid (A) and MeOH (B) at a flow rate of 0.30 mL/min. A gradient elution program was used as following: 0→2.5 min, B% 60→90; 2.5→2.6 min, B% 90→60; and 2.6→4 min, B% 60→60. The injection volume was 10 µL and the temperature of the autosampler was set at 4°C to keep the samples stable during the analysis.
The tuning solutions (10 µg/mL) of the individual analytes were prepared by diluting the corresponding primary stock solutions with 50% MeOH. The tuning solutions were delivered at 5.0 µL/min using a syringe pump and combined through a PEEK tee-connector with the mobile phase delivered at 0.3 mL/min with the LC pump. The instrumental parameters of the MS spectrometers in positive ion ESI mode were optimized to achieve maximum ionization of the analyte molecules and the generation of characteristic fragment ions. […] The scan time for each pair was set to 50 ms. The operating parameters of the mass spectrometer included compound-dependent and source-dependent considerations. The optimized source-dependent parameters consisted of the flow rates of curtain gas, gas 1, gas 2, collision gas (CAD), capillary temperature (TEM), and ion spray voltage. The compound-dependent parameters for the test compounds included the declustering potential (DP), entrance potential (EP), collision energy (CE), and collision cell exit potential (CXP).
Standard curves, intra-batch accuracy, and precision for the quantification of the 15 compounds in the rat plasma samples were constructed similarly. The accuracy was measured as the difference between the nominal value and the measured value, expressed as a percentage of the nominal value. Precision was expressed as the coefficient of variation (CV), i.e., the standard deviation divided by the mean multiplied by 100.
The plasma concentration–time data for D7 were analyzed with the WinNonlin 5.2.1 software (Pharsight, Mountain View, CA, USA) using a non-compartmental model. The peak plasma concentration (C max) and the corresponding time (T max) were directly obtained from the concentration data.

[1] = SD rats, single oral D7 4 mL/kg
[2] = SD rats, single oral D7 4 mL/kg, plasma
[3] = SD rats, single oral D7 4 mL/kg, plasma, non-compartmental, read-out: T1/2 (converted)
[4] = SD rats, single oral D7 4 mL/kg, plasma, read-out: AUC0–24 h
[5] = SD rats, single oral D7 4 mL/kg, read-out: CL/F (converted)

Row | Structure (SMILES) | Detection in rat plasma after D7 administration [1] | AUMCall [2] [h·h·ng/mL] | AUMClast [2] [h·h·ng/mL] | AUC [2] [ng·h/mL] | Cmax [2] [ng/mL] | MRT [2] [h] | Tmax [2] [h] | half-life [3] [h] | AUC(0-t) [4] [ng·h/mL] | CL/F [5] [mL/min/kg] | Vd/F [1] [L/kg] | CL/F (po) [mL/min/kg] | half-life (po, T1/2) [h] | T1/2 (SD rats, single oral D7 4 mL/kg, plasma, non-compartmental) [h] | half-life (po, SD rats, single oral D7 4 mL/kg, plasma, non-compartmental, read-out: T1/2 (converted)) [h] | AUC(0-t) (SD rats, single oral D7 4 mL/kg, plasma, read-out: AUClast) [ng·h/mL]
1 | O=c1ccc2ccc3occc3c2o1 [Isopsoralen, isopsoralen] | measureable | 168803±119110 | 150025±99963 | 21000 ± 12100 | 2240 ± 824 | 7.13 ± 0.66 | 6 | 3.53 ± 1.03 | 20400 ± 11500 | 1.1 | 0.308 ± 0.181 | – | – | – | – | –
2 | COCC12CN(C)C3C4C(OC)C1C3(C(OC)CC2O)C1CC2(O)C(OC)C(O)C4(OC(C)=O)C1C2OC(=O)c1ccccc1 (stereo not shown) [mesaconitine] | not detected | – | – | – | – | – | – | – | – | – | – | – | – | – | – | –
3 | COC[C@@]12CC[C@H](OC)[C@]34C(C([C@H](OC)[C@H]13)[C@]1(OC(C)=O)[C@H]3[C@@H](OC(=O)c5ccccc5)[C@](O)(C[C@H]34)[C@@H](OC)[C@@H]1O)N(C)C2 [hypaconitine] | not detected | – | – | – | – | – | – | – | – | – | – | – | – | – | – | –
4 | O=c1ccc2cc3ccoc3cc2o1 [Psoralen, psoralen] | – | 74305±51503 | 69918±49475 | 10200 ± 6000 | 929 ± 431 | 6.71 ± 0.79 | 6 | 3.18 ± 0.24 | 9980 ± 5960 | 1.39 | 0.384 ± 0.227 | – | – | – | – | –
5 | COc1c2ccoc2cc2oc(=O)ccc12 [Bergapten, bergapten] | measureable | 1270±958 | 924±716 | 158 ± 77.9 | 20.5 ± 7.22 | 5.65 ± 2.16 | 1 | 4.14 ± 0.7 | 143 ± 73.2 | 8.07 | 2.93 ± 1.57 | – | – | – | – | –
6 | CCN1C[C@]2(COC)[C@H](O)C[C@H](OC)[C@@]34[C@@H]5C[C@@]6(O)[C@H](OC(=O)c7ccccc7)[C@@H]5[C@@](OC(C)=O)([C@@H]([C@H](OC)[C@H]23)[C@@H]14)[C@@H](O)[C@@H]6OC [aconitine] | not detected | – | – | – | – | – | – | – | – | – | – | – | – | – | – | –
7 | CCN1CC2(COC)C(O)CC(OC)C34C5CC6(O)C(OC)C(O)C(O)(C5C6OC(=O)c5ccccc5)C(C(OC)C23)C14 (stereo not shown) [Benzoylaconitine, benzoylaconine] | not detected | – | – | – | – | – | – | – | – | – | – | – | – | – | – | –
8 | COc1c2occc2cc2ccc(=O)oc12 [Xanthotoxin, xanthotoxin] | – | 1445±719 | 667±270 | 209 ± 89.5 | 31.7 ± 9.55 | 4.06 ± 0.41 | 1 | – | 162 ± 64.7 | – | 3.69 ± 1.52 | 9.6 | 4.56 ± 0.71 | – | – | –
9 | CC(C)=CCc1cc2c(cc1O)oc(=O)c1c3ccc(O)cc3oc21 [Psoralidin, psoralidin] | measureable | 2240±462 | 329±44 | 64.5 ± 8.46 | 2.57 ± 0.53 | 10.3 ± 0.39 | 0.5 | – | – | 2.88 | 5.87 ± 0.395 | – | – | 23.7 ± 1.7 | ~24 | 31.9 ± 3.32
